The subject of one assay is PBMC. Briefly: two-step IFNγ ELISpot assay with human PBMC.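 Also: background is unstimulated wells, counts given per 1 million cells, 200,000–250,000 cells per well, restimulated at 37°C, read by Zeiss plate reader, IL-2 and IL-7 fed during pre-culture.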 The assay is classed as cell-based. The following applies: 7 d pre-culture with GAD65 peptide pool, 48 h restimulation, triplicate.
A further assay deals with T1, DRB1*1501 (Homo sapiens, UniProt P01903+P01911).
T1 construct: gift: William Kwok, Benaroya Institute, Seattle
The assay is described as follows: competition-based HLA binding assay.

A further assay deals with DRB1*0401 (Homo sapiens, UniProt P01903+P01911, A100K/A169T/F76Y/I96L/K127E/L162R/M171V/N62H/P40V/Q125Y/R42H/S133A/S149N/S66Y/V115G/V209L/W38E). The following applies: read-out: DRB1*0401 IC50; competition with biotin-Flu-HA 306–318 at 0.1 μM, 24 h, 37°C; NB = non-binder.
A further assay deals with DRB1*0101 (Homo sapiens, UniProt P01903+P01911, A100R/D57E/F55L/F60I/F76Y/I96L/L162R/M171V/P40L/Q125E/R42F/V115G/Y59C). Briefly: biochemical.
The target in assay [1] is T2, DRB1*0701 (Homo sapiens, UniProt P01903+P01911, A100R/A102G/A103Q/D57E/D86V/E43K/F76Y/K127E/L162R/M171V/P40G/Q125H/Q99D/R33Q/R42Y/R54Q/S133A/S66F/T210M/V115G/Y107V/Y59L/Y89S). Briefly: biochemical.
Assay [2] has as its target T2, DRB1*0701. The following applies: read-out: DRB1*0701 IC50; competition with biotin-Flu-HA 306–318 at 1 μM, 24 h, 37°C; NB = non-binder.
The mark [3] stands for this setting: Negative Control 674 PBMC, Tregitope + (5 μg/mL each human Tregitopes 167 and 289).
The mark [4] stands for this setting: Negative Control 674 PBMC, Tregitope −.
Setting [5] is: Subject D1100H (T1D) PBMC, Tregitope + (5 μg/mL each human Tregitopes 167 and 289).
Setting [6] is: Subject D1100H (T1D) PBMC, Tregitope −.
[7] abbreviates: Subject D1101H (T1D) PBMC, Tregitope + (5 μg/mL each human Tregitopes 167 and 289).
The mark [8] stands for this setting: Subject D1101H (T1D) PBMC, Tregitope −.
The mark [9] stands for this setting: Subject D1104H (T1D) PBMC, Tregitope + (5 μg/mL each human Tregitopes 167 and 289).
[10] abbreviates: Subject D1104H (T1D) PBMC, Tregitope −.
The mark [11] stands for this setting: Subject D1106H (T1D) PBMC, Tregitope + (5 μg/mL each human Tregitopes 167 and 289).
Setting [12] is: Subject D1106H (T1D) PBMC, Tregitope −.
The mark [13] stands for this setting: Subject D1107H (T1D) PBMC, Tregitope + (5 μg/mL each human Tregitopes 167 and 289).
Where [14] appears, read: Subject D1107H (T1D) PBMC, Tregitope −.
[15] abbreviates: Negative Control 668 PBMC, Tregitope + (5 μg/mL each human Tregitopes 167 and 289).
[16] abbreviates: Negative Control 668 PBMC, Tregitope −.
The mark [17] stands for this setting: Negative Control 669 PBMC, Tregitope + (5 μg/mL each human Tregitopes 167 and 289).
Setting [18] is: Negative Control 669 PBMC, Tregitope −.
Setting [19] is: Negative Control 670 PBMC, Tregitope + (5 μg/mL each human Tregitopes 167 and 289).
Where [20] appears, read: Negative Control 670 PBMC, Tregitope −.
[21] abbreviates: Subject D1105H (T1D) PBMC, Tregitope + (5 μg/mL each human Tregitopes 167 and 289).
Where [22] appears, read: Subject D1105H (T1D) PBMC, Tregitope −.

Like-named read-outs stand apart in the source and are kept apart here. Marks after values point to notes of the source that are not given here. No end group written: not given here.

In the case of “GAD65 protein: whole GAD65 protein (Kronus, UK)”, the “IFNγ ELISpot SFC over background” value in the assay with PBMC (setting [3]) stood at 818 SFC over BG/10^6; with PBMC (setting [4]) it was 44 SFC over BG/10^6; with PBMC (setting [5]), 77 SFC over BG/10^6; in the assay with PBMC (setting [6]) it was 413 SFC over BG/10^6; in the assay on PBMC (setting [7]), 59 SFC over BG/10^6; with PBMC (setting [8]), 37 SFC over BG/10^6. The “IFNγ ELISpot SFC over background” value in the assay on PBMC (setting [9]) was determined as 69 SFC over BG/10^6; in the assay on PBMC (setting [10]) it was 32 SFC over BG/10^6; with PBMC (setting [11]) it was 591 SFC over BG/10^6; in the assay on PBMC (setting [12]), 670 SFC over BG/10^6; with PBMC (setting [13]) it was 46 SFC over BG/10^6; with PBMC (setting [14]), 95 SFC over BG/10^6.
As to VDVFKLWLMWRAKGTTGFEAH [GAD65_450–470], the 50% inhibitory concentration (IC50) was 11.4 µM at DRB1*1501, > 50 µM on DRB1*0401, 25.4 µM on DRB1*0101 and 10.2 µM on DRB1*0701 [1].
As to LGDKVNFFRMVISNPAATHQD [GAD65_550–570], the “IFNγ ELISpot SFC over background” value is 440 SFC over BG/10^6 with PBMC (setting [15]); 312 SFC over BG/10^6 with PBMC (setting [16]); 30** SFC over BG/10^6 in the assay with PBMC (setting [17]); 144 SFC over BG/10^6 in the assay with PBMC (setting [18]); −90 SFC over BG/10^6 in the assay on PBMC (setting [19]); 25 SFC over BG/10^6 in the assay with PBMC (setting [20]). For the same substance, the “IFNγ ELISpot SFC over background” value with PBMC (setting [3]) was 431 SFC over BG/10^6; with PBMC (setting [4]), 490 SFC over BG/10^6; in the assay with PBMC (setting [5]), 141 SFC over BG/10^6; in the assay with PBMC (setting [6]), 199 SFC over BG/10^6; with PBMC (setting [7]), 100 SFC over BG/10^6; in the assay with PBMC (setting [8]), 126 SFC over BG/10^6. Further, the “IFNγ ELISpot SFC over background” value in the assay with PBMC (setting [9]) was 101 SFC over BG/10^6; with PBMC (setting [10]) it was 146 SFC over BG/10^6; in the assay with PBMC (setting [21]), 228* SFC over BG/10^6; in the assay with PBMC (setting [22]), 352 SFC over BG/10^6; in the assay on PBMC (setting [11]), 113 SFC over BG/10^6; in the assay with PBMC (setting [12]) it was 88 SFC over BG/10^6. Further, the “IFNγ ELISpot SFC over background” value with PBMC (setting [13]) is 1** SFC over BG/10^6; in the assay with PBMC (setting [14]), 160 SFC over BG/10^6. Also, the half-inhibitory concentration (IC50) on DRB1*0401 is < 25 µM.
In the case of “GAISNMYAMMIARFKMFPEVKEKGM [GAD65_243–267]”, the IC50 at DRB1*1501 is < 5 µM; against DRB1*0101, < 5 µM; at DRB1*0701 [1], 8.7 µM.
Regarding TTVYGAFDPLLAVAD [GAD65_338–352], the IC50 on DRB1*1501 (competition with biotin-MBP 84–102 at 0.5 μM, 24 h, 37°C, NB = non-binder, read-out: DRB1*1501 IC50) was 31.3 µM; on DRB1*0401, > 50 µM; on DRB1*0701 [2], > 50 µM; against DRB1*0101, 4.1 µM.
As to “NMFTYEIAPVFVLLEYVTLKKMRE [GAD65_203–226]”, the “IFNγ ELISpot SFC over background” value with PBMC (setting [15]) is on record as 460 SFC over BG/10^6; in the assay with PBMC (setting [16]), 475 SFC over BG/10^6; with PBMC (setting [17]), 52 SFC over BG/10^6; with PBMC (setting [18]) it was 109 SFC over BG/10^6; in the assay on PBMC (setting [19]) it was 82** SFC over BG/10^6; in the assay with PBMC (setting [20]) it was 329 SFC over BG/10^6. In addition, the “IFNγ ELISpot SFC over background” value in the assay on PBMC (setting [3]) is 109 SFC over BG/10^6; with PBMC (setting [4]) it was 168 SFC over BG/10^6; in the assay on PBMC (setting [7]) it was 51 SFC over BG/10^6; with PBMC (setting [8]) it was 157 SFC over BG/10^6; with PBMC (setting [9]), 154 SFC over BG/10^6; in the assay on PBMC (setting [10]) it was 221 SFC over BG/10^6. In addition, the “IFNγ ELISpot SFC over background” value in the assay with PBMC (setting [21]) is 138* SFC over BG/10^6; in the assay on PBMC (setting [22]) it was 245 SFC over BG/10^6; in the assay with PBMC (setting [11]), 138 SFC over BG/10^6; in the assay on PBMC (setting [12]), 207 SFC over BG/10^6. Further, on DRB1*0401, the half-maximal inhibitory concentration (IC50) is < 25 µM.

Broadly, the IC50 is the concentration that gives 50% inhibition.

For the origin of these results see article PMC3655598, “Application of IgG-Derived Natural Treg Epitopes (IgG Tregitopes) to Antigen-Specific Tolerance Induction in a Murine Model of Type 1 Diabetes” (Journal of Diabetes Research, 2013).
